Test: 22-week randomized, double-blind, placebo-controlled clinical trial
Format: in vivo, patients
Procedure: A 22-week randomized, double-blind, placebo-controlled study with a dose titration period of up to 9 weeks was conducted. Sixty-one patients were randomized 2:1 ralinepag to placebo. Right Heart Catheterization (RHC) measurements were obtained prior to study Day 1 of the dose titration period and at Week 22. The following values were obtained and recorded: pulmonary artery pressure (PAP) (systolic, diastolic, and mean), heart rate (HR), right atrial pressure (RAP), pulmonary capillary wedge pressure (PCWP) right ventricular pressure (RVP) and cardiac output (CO), pulmonary vascular resistance (PVR), arterial and mixed venous oxygen saturation (FiO2) (if applicable). Systemic vascular resistance (SVR) was estimated from blood pressure measurements. All patients were receiving background PAH treatment with an endothelin receptor antagonist, phosphodiesterase type-5-inhibitor, or soluble guanylate cyclase activator, alone or in combination.
The primary efficacy endpoint for the study was change from baseline in PVR after 22 weeks of treatment. Additional analyses included change from baseline in 6 MWD after 22 weeks of treatment, hemodynamics, and safety and tolerability. Ralinepag was administered as a capsule in 0.01, 0.02, 0.03, 0.04, and 0.10 mg dose strengths.
The starting dose of ralinepag was 0.01 mg twice daily. The dose of ralinepag was titrated according to patient tolerability. If the initial dose was tolerated (0.01 mg twice daily), then the dose was increased once a week in the following fashion: 0.02 mg twice daily, 0.03 mg twice daily, 0.04 mg twice daily, 0.06 mg twice daily, 0.08 mg, 0.1 mg twice daily, 0.2 mg twice daily and 0.3 mg twice daily. The dose was optionally escalated to a possible maximum total daily dose of 0.6 mg (0.3 mg twice daily), pending tolerability.

## O=C(O)COC[C@H]1CC[C@H](COC(=O)N(c2ccccc2)c2ccc(Cl)cc2)CC1 [ralinepag, 2-(((1r,4r)-4-(((4-chlorophenyl)(phenyl)carbamoyloxy)methyl)cyclohexyl)methoxy)acetic acid]
After 22 weeks
  6-minute walk distance (6MWD): numerical improvement
After 22 weeks, compared to placebo, on background PAH treatment
  change from baseline in pulmonary vascular resistance (PVR): statistically significant change from baseline
human, in vivo
  adverse events: consistent with other prostacyclin treatments

Reference: US12377067B2, “Methods of treating PAH with combinations of ralinepag and other agents” (Arena Pharmaceuticals, Inc., priority 2016, dated 2025)
